Results from publication PMC8478281, “Targeting the FtsZ Allosteric Binding Site with a Novel Fluorescence Polarization Screen, Cytological and Structural Approaches for Antibacterial Discovery” (Journal of Medicinal Chemistry, 2021).
Values after ≈ are worked out from the molar mass of the structure shown. Values joined by “and” are separate entries in the source; they are usually repeats but may differ in a detail not shown here. Equal values may be shown once. Read-outs that look alike come from different tables or passages of the source.

Tests used:
[1] = biological target: T1, stabilized polymers of FtsZ from B. subtilis (Bacillus subtilis, UniProt P17865); assay: Competition assay: displacement of probe (R)-5 from stabilized BsFtsZ-GMPCPP polymers; assay type: binding; conditions: stabilized polymers of FtsZ from B. subtilis, probe (R)-5, mean ± SEM
T1 construct: made in house
T1 sequence (P17865 whole entry): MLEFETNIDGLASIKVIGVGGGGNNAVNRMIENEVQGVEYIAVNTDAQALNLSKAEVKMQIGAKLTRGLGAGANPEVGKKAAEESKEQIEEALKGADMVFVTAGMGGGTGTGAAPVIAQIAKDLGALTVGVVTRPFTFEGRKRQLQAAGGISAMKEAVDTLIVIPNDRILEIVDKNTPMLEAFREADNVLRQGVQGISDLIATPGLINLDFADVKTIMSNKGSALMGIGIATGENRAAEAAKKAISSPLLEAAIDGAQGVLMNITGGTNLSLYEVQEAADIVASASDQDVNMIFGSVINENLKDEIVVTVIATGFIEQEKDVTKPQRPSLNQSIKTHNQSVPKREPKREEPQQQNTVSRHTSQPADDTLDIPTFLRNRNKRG
Experimental: (§1) FtsZ (10–15 μM) was assembled in HEPES buffer, 10 mM MgCl2, 50 μM GMPCPP at 25 °C for 10 min, and then 0.15% (v/v) glutaraldehyde[36] (distilled grade for microscopy, TAAB Laboratories, U.K.) was added to the solution that was incubated at 25 °C for 10 min more. (This was the minimal glutaraldehyde concentration determined to stabilize FtsZ polymers specifically binding probe 1.) The remains of the cross-linking agent were quenched by adding 60 mM NaBH4, the sample was incubated on ice for 10 min and degassed.[36] Cross-linked polymers were centrifuged for 10 min at 8200g (5000 rpm) and 4 °C in 15 mL Falcon tubes employing a Rotina 380R (Hettich) centrifuge, the supernatant was removed and the pellet was resuspended in the same volume of HEPES buffer, 10 mM MgCl2, containing 5 μM GMPCPP. Fixed FtsZ polymers were active in binding assays after more than 2 days at 4 °C; they could also be frozen in liquid nitrogen with a small loss of binding capacity. […] Cross-linked polymers of SaFtsZ were similarly prepared.
(§2) Competition assays were performed by measuring, through the decrease in fluorescence anisotropy, the displacement of the fluorescent probes from stabilized FtsZ polymers. Increasing concentrations of competing ligands were added to the mixtures of cross-linked FtsZ polymers (10–15 μM) with probe 1 (3 μM), 7–8 μM FtsZ polymers with probe (S)-2 (3 μM), or 2–3 μM FtsZ polymers with (R)-5 (3 μM). HEPES buffer with 10 mM MgCl2 and 0.1 mM GMPCPP was employed, with a final volume of 0.5 mL, and the anisotropy measured at 25 °C. Under these conditions, the initial fraction of the probe bound was between 0.4 and 0.5. The fraction of the probe bound (Vb) was calculated [drawing 1] where rfree and rmax are the anisotropy values of the free and bound probes, respectively, and R is the ratio between the fluorescence intensities of the bound and free probe (Table S1). The binding data were plotted against the competing ligand concentration and fitted by competition equilibrium of the ligand and the probe for the same binding site. The resulting system of equations[50] was numerically solved using the Equigra v. 5.0 program,[33] which provided the best-fitted value of the competitor binding constant.

B. subtilis [2] = assay: Minimal division inhibitory concentration and cell division phenotype, B. subtilis; assay type: cell-based, Bacillus subtilis; conditions: for minimal effective concentration: Bacillus subtilis, read-out: MDC B. subtilis
Experimental: (§3) B. subtilis 168 and Staphylococcus spp. were grown in cation adjusted Mueller–Hinton broth (CAMHB; Becton, Dickinson and Company) at 37 °C. B. subtilis SU570 were grown in the same medium at 30 °C. In all cases, the cells were grown to an absorbance of 0.1–0.2 at 600 nm and then incubated either with the compounds or DMSO vehicle. Microscopy assays and cell measurement were performed as previously described.[31] MIC values were determined by a broth macrodilution method.[51] MBC values were determined as the lowest concentration of inhibitor at which there was a 99.9% reduction in colony-forming units/mL compared to the inoculum. To construct a S. aureus strain expressing FtsZ-mCherry, the plasmid pCN-ftsZmch[9] was electroporated into RN4220 and 0.1 μM cadmium chloride (Sigma-Aldrich) was used to induce the expression of the construct under the control of the Pcad promoter.

S. aureus Mu50 [3] = assay: Minimal division inhibitory concentration, S. aureus Mu50; assay type: cell-based; conditions: Staphylococcus aureus, MU50, read-out: MDC S. aureus Mu50
Experimental: as §3

B. subtilis [4] = assay: Minimal growth inhibitory concentration (broth macrodilution), B. subtilis; assay type: cell-based, Bacillus subtilis; conditions: Bacillus subtilis, read-out: MIC B. subtilis
Experimental: as §3

S. aureus Mu50 [5] = assay: Minimal growth inhibitory concentration (broth macrodilution), S. aureus Mu50; assay type: cell-based, Staphylococcus aureus; conditions: Staphylococcus aureus, MU50, read-out: MIC S. aureus Mu50
Experimental: as §3

[6] = Solubility in HEPES buffer with 2% DMSO, spectrophotometric; assay type: physicochemical; conditions: HEPES buffer containing 2% DMSO, 25 °C, aqueous buffer, kinetic from dmso stock; HEPES buffer pH 6.8 containing 2% DMSO
Experimental: 3.2. Solubility of Compounds. Stock solutions of compounds were prepared in
DMSO (spectroscopic grade, Merck) a nd stored at -20 °C. Compound solubility in 50
mM HEPES-KOH, 50 mM KCl, 1 mM EDTA, pH 6.8 (HEPES buffer) containing 2%
DMSO was determined spectrophotometrically, monitoring the linear correlation
between the absorbance and the compound concentration and the absence of light
scattering. The solutions were optionally centrifuged at 100000 rpm for 20 min at 25 °C
in a TLA100 rotor with a Beckman Optima Max -XP ultracentrifuge.

[7] = biological target: T2, stabilized FtsZ-GMPCPP polymers (BsFtsZ) (Bacillus subtilis, UniProt P17865); assay: Competition assay: displacement of probe (S)-2 from stabilized FtsZ-GMPCPP polymers; assay type: binding; conditions: for Kd: (S)-2 3 μM, 8 μM binding sites
T2 construct: made in house
T2 sequence (P17865 whole entry): as above
Experimental: as §1, §2

[8] = biological target: T3, stabilized FtsZ-GMPCPP polymers (Bacillus subtilis, UniProt P17865); assay: Fluorescence anisotropy screen with probe (S)-2 at two compound concentrations; assay type: binding; conditions: probe (S)-2 3 μM, compound 20 and 200 μM
T3 construct: made in house
T3 sequence (P17865 whole entry): as above
Experimental: Once the fluorescence method for ligand binding into the interdomain cleft was set up, we evaluated its potential to screen for FtsZ allosteric inhibitors. Complementary to this screen, cytological profiling tests of the identified binders allow ascertaining their ability to target FtsZ in bacterial cells. Fluorescence anisotropy measurements of probe (S)-2 at two concentrations of each tested compound (20 and 200 μM) were acquired; the solubility range of positively testing compounds was determined spectrophotometrically. […] The promiscuous inhibitors resveratrol,[40] plumbagin,[41] and tiplaxtinin[42] […] It should be noticed that aggregating compounds may sequester the protein or the probe or may scatter highly polarized light, potentially interfering with the fluorescence anisotropy measurements. Colored and fluorescent compounds can also interfere. Compounds initially testing positive in the anisotropy screen should thus be checked for any unexpected changes of the total fluorescence intensity in the same samples, as well as for any artefactual effects on replicates omitting FtsZ.
(§4) Figure 4 Fluorescence anisotropy screen for FtsZ allosteric inhibitors combined with cell-based methods. (A) Screen for FtsZ inhibitors employing the fluorescence anisotropy of probe (S)-2 (3 μM) and stabilized FtsZ-GMPCPP polymers (8 μM binding sites). The anisotropy values of the partially bound probe (void black circles), the free probe (void gray circles), and the values with two concentrations of each compound, 20 μM (gray circles) and 200 μM (black circles) are shown. Control values with the corresponding concentrations of dimethyl sulfoxide (DMSO) vehicle (2% void and gray circles; 4%, black circle) are also shown. (B) Chemical structures of synthetic ligands 6–26. (C) Effects of low-affinity inhibitors 6, 7, and 9 on B. subtilis 168 cell division. Raw data plots (n ≥ 30) are shown with the mean values marked (statistics in Table S2). The cells were incubated for 3 h with each compound, and cell lengths were measured. (D) Representative phase-contrast images of cells after 3 h with 7 or 9 (0.75 mM each). (E) Cellular localization of FtsZ-GFP in B. subtilis SU570 following growth for 1.5 h in the absence (inset) and presence of 7 (0.2 mM). Bars, 10 μm.
as §2

B. subtilis 168 = assay: Cell length of B. subtilis 168 incubated with FtsZ inhibitors; assay type: cell-based, Bacillus subtilis; set-up: unit not given here; conditions: B. subtilis 168, 3 h, mean and standard error, n ≥ 30
Experimental: as §4, with “The anisotropy values of the partially bound probe (void black circles), the free probe (void gray circles), and the values with two concentrations of each compound, 20 μM (gray circles) and 200 μM (black circles) are shown.” left out, “(B) Chemical structures of synthetic ligands 6–26. (C) Effects of low-affinity inhibitors 6, 7, and 9 on B. subtilis 168 cell division.” left out
as §3, with “MBC values were determined as the lowest concentration of inhibitor at which there was a 99.9% reduction in colony-forming units/mL compared to the inoculum.” left out, “promoter. […]” for “promoter.”

Compound | minimal effective concentration (B. subtilis [2]) | MIC (B. subtilis [4]) | MIC (S. aureus Mu50 [5]) | solubility [6] | result of the anisotropy screen, in words [8] | further results
NC(=O)c1c(F)ccc(OCCc2cccc(C(F)(F)F)c2)c1F [Compound 22] | 15 µM | 50 µM (≈ 17.3 µg/mL) | 200 µM (≈ 69.1 µg/mL) | > 100 µM | – | Kd ([1]; read-out: KD): 5.9 ± 0.4 µM; minimal effective concentration (S. aureus Mu50 [3]): 100 µM
CN(C)CCC(Oc1ccc(F)c(C(N)=O)c1F)c1cccc(C(F)(F)F)c1 (centres unmarked) [Compound 24] | > 50 µM | > 100 µM | > 100 µM | > 1000 µM | – | Kd ([1]; KD): 145 ± 10 µM; minimal effective concentration (S. aureus Mu50 [3]): > 100 µM
OCc1nc2cc(Cl)cnc2s1 [CTPM, 6-(chloro[1,3]thiazolo[5,4-b]pyridin-2-yl)methanol, reference compound] | – | – | – | – | – | Kd [7]: 1000 ± 100 µM
O=C(Oc1cc(OC(=O)c2cc(O)cc(O)c2)c2ccccc2c1)c1ccc(O)c(O)c1 [UCM44] | – | – | – | – | marginal inhibitory effect | –
NC(=O)c1ccc(NCc2cccc(Cl)c2)cc1 [Compound 9] | – | – | – | ≥ 100 µM | weak binders | Kd [7]: 196 µM and ~200 µM; length (B. subtilis 168; 0.5 mM): 6.1 ± 0.3; length (B. subtilis 168; 0.75 mM): 11.6 ±0.4
NC(=O)c1c(F)ccc(OCc2ccc(C(F)(F)F)cc2)c1F [Compound 21] | 25 µM | 50 µM (≈ 16.6 µg/mL) | 100 µM (≈ 33.1 µg/mL) | 100 µM (≈ 33.1 µg/mL) | – | Kd ([1]; read-out: KD): 6.7 ± 0.4 µM
O=C(O)C(=O)c1cn(Cc2ccccc2)c2ccc(-c3ccc(OC(F)(F)F)cc3)cc12 [tiplaxtinin, reference compound] | – | – | – | – | weakly modified anisotropy and total fluorescence intensity | inhibition of B. subtilis cell division, in words (B. subtilis [2]): none of them impaired B. subtilis cell division
NC(=O)c1cccc(OCCCc2cccc(Cl)c2)c1 [Compound 13] | 25 µM | 100 µM (≈ 29 µg/mL) | > 100 µM | 25 µM (≈ 7.24 µg/mL) | – | Kd ([1]; read-out: KD): 9.5 ± 0.5 µM
COc1ccc(F)c(C(N)=O)c1F [DFMBA, 2,6-difluoro-3-methoxybenzamide, reference compound] | – | – | – | – | – | Kd [7]: 670 ± 50 µM
CC1=CC(=O)c2c(O)cccc2C1=O [plumbagin, reference compound] | – | – | – | – | weakly modified anisotropy and total fluorescence intensity | inhibition of B. subtilis cell division, in words (B. subtilis [2]): none of them impaired B. subtilis cell division
CN(Cc1cccc(Cl)c1)c1ccc(C(N)=O)cc1 [Compound 10] | – | – | – | ≥ 100 µM | weak binders | Kd [7]: 250 µM and ~200 µM
Oc1ccc(/C=C/c2cc(O)cc(O)c2)cc1 [resveratrol, reference compound] | – | – | – | – | weakly modified anisotropy and total fluorescence intensity | inhibition of B. subtilis cell division, in words (B. subtilis [2]): none of them impaired B. subtilis cell division
Nc1nc2c(ncn2[C@@H]2O[C@H](COP(=O)(O)OP(=O)(O)O)[C@@H](O)[C@H]2O)c(=O)[nH]1 [GDP, guanosine diphosphate, reference compound] | – | – | – | – | – | displacement of (S)-2 from its binding site, in words ([7]; negative control): does not displace
CCN(CC)CCNc1nc(/C=C/c2ccc(Cl)cc2)nc2cc3ccccc3cc12 [zantrin Z3] | – | – | – | – | no evidence of binding | –
NC(=O)c1cccc(OCCc2cccc(Cl)c2)c1 [Compound 12] | 50 µM | 100 µM (≈ 27.6 µg/mL) | > 100 µM | ≥ 100 µM | – | Kd ([1]; read-out: KD): 7.1 ± 0.5 µM
NC(=O)c1c(F)ccc(OCCCc2cccc(C(F)(F)F)c2)c1F [Compound 23] | 5 µM | 10 µM (≈ 3.59 µg/mL) | 50 µM (≈ 18 µg/mL) | 50 µM (≈ 18 µg/mL) | – | Kd ([1]; read-out: KD): 1.5 ± 0.1 µM; minimal effective concentration (S. aureus Mu50 [3]): 25 µM
O=C(O)CCN(Cc1ccccc1)Cc1cccc(Sc2ccccc2)c1 [PC170942] | – | – | – | – | no evidence of binding | –
